Assay results from ChEMBL document CHEMBL4251646, “Improved antibacterial activity of a marine peptide-N2 against intracellular Salmonella typhimurium by conjugating with cell-penetrating peptides-bLFcin6/Tat11” (Eur J Med Chem, 2018).
In brackets after ≈: the same amount, converted by molar mass.

Legend:
[1] = Cytotoxicity against mouse RAW264.7 cells assessed as cell survival at 100 uM after 8 hrs by MTT assay; assay type: cell-based; details: read-out: Survival
[2] = Drug uptake in mouse RAW264.7 cells at 5 uM using FITC-labeled test compound after 0.5 hrs by flow cytometry; assay type: ADME, cell-based; details: raw264.7, 0.5 h
[3] = Drug uptake in mouse RAW264.7 cells at 5 uM using FITC-labeled test compound after 5 hrs by Hoechst 33342/FM 4-64 staining-based confocal microscopic analysis; assay type: ADME, cell-based; details: raw264.7, 5 h
[4] = Drug internalization in mouse RAW264.7 cells using FITC-labeled test compound by flow cytometry; assay type: ADME, cell-based
[5] = Drug internalization in mouse RAW264.7 cells at 1 uM using FITC-labeled test compound after 0.5 hrs by flow cytometry; assay type: ADME, cell-based; details: raw264.7, 0.5 h
[6] = Drug uptake in mouse RAW264.7 cells at 5 uM using FITC-labeled test compound after 2 hrs by flow cytometry; assay type: ADME, cell-based; details: raw264.7, 2 h
[7] = Drug internalization in mouse RAW264.7 cells at 1 uM using FITC-labeled test compound after 2 hrs by flow cytometry; assay type: ADME, cell-based; details: raw264.7, 2 h
[8] = tested on: Salmonella typhimurium; experiment: Antibacterial activity against Salmonella typhimurium ATCC 14028 at pH 5 after 16 to 18 hrs by broth microdilution method; assay type: functional, Salmonella enterica subsp. enterica serovar Typhimurium; details: Salmonella enterica
[9] = tested on: Salmonella typhimurium; experiment: Bactericidal activity against Salmonella typhimurium ATCC 14028 infected in mouse RAW264.7 cells assessed as log reduction in intracellular bacterial load at 50 uM within 3 to 9 hrs in presence of gentamycin; assay type: functional, Salmonella enterica subsp. enterica serovar Typhimurium
[10] = tested on: Salmonella typhimurium; experiment: Bactericidal activity against Salmonella typhimurium ATCC 14028 at 10 uM within 3 to 9 hrs; assay type: functional, Salmonella enterica subsp. enterica serovar Typhimurium
[11] = tested on: Salmonella typhimurium; experiment: Bactericidal activity against Salmonella typhimurium ATCC 14028 infected in mouse RAW264.7 cells assessed as log reduction in intracellular bacterial load at 10 uM after 10 hrs in presence of gentamycin; assay type: functional, Salmonella enterica subsp. enterica serovar Typhimurium
[12] = tested on: Salmonella typhimurium; experiment: Bactericidal activity against Salmonella typhimurium ATCC 14028 infected in mouse RAW264.7 cells assessed as log reduction in intracellular bacterial load at 20 uM within 3 to 9 hrs in presence of gentamycin; assay type: functional, Salmonella enterica subsp. enterica serovar Typhimurium
[13] = tested on: Salmonella typhimurium; experiment: Antibacterial activity against Salmonella typhimurium ATCC 14028 at pH 7 after 16 to 18 hrs by broth microdilution method; assay type: functional, Salmonella enterica subsp. enterica serovar Typhimurium; details: Salmonella enterica
[14] = tested on: Salmonella typhimurium; experiment: Antibacterial activity against Salmonella typhimurium ATCC 14028 assessed as survival at 10 uM after 3 hrs by broth microdilution method; assay type: functional, Salmonella enterica subsp. enterica serovar Typhimurium
[15] = tested on: Salmonella typhimurium; experiment: Bactericidal activity against Salmonella typhimurium ATCC 14028 infected in mouse RAW264.7 cells assessed as log reduction in intracellular bacterial load at 100 uM within 3 to 9 hrs in presence of gentamycin; assay type: functional, Salmonella enterica subsp. enterica serovar Typhimurium

Structure (SMILES) | viability at 8 h, 100 µM [1] [%] | Drug uptake [2] [%] | Drug uptake [3] | Drug uptake [4] | Drug uptake [5] [%] | Drug uptake [6] [%] | Drug uptake [7] [%] | MIC [8] [µM] | log(activity) [9] | Activity [10] | log(activity) [11] | log(activity) [12] | MIC [13] [µM] | Survival [14] [×10⁵ CFU/ml] | log(activity) [15]
CC(C)[C@@H]1NC(=O)[C@H](C)NC(=O)[C@H](CC(N)=O)NC(=O)[C@H](CCCNC(=N)N)NC(=O)[C@H](Cc2ccc(O)cc2)NC(=O)[C@H](C(C)C)NC(=O)[C@@H]2CSSC[C@H](NC(=O)[C@H](C(C)C)NC(=O)[C@H](CCCNC(=N)N)NC1=O)C(=O)N[C@@H](Cc1c[nH]cn1)C(=O)N[C@@H](CCCNC(=N)N)C(=O)N[C@@H](CCCNC(=N)N)C(=O)N[C@H](C(=O)N[C@@H](CC(N)=O)C(=O)O)CSSC[C@H](NC(=O)[C@H](Cc1ccccc1)NC(=O)[C@H](C)N)C(=O)N[C@@H](Cc1c[nH]c3ccccc13)C(=O)N[C@@H](CC(N)=O)C(=O)N[C@@H](C(C)C)C(=O)N2 | 103 | 50 | Not Active | Dose-dependent effect and Tde | 17.3 | 93.4 | 31.4 |  |  |  |  |  |  |  | 
CC(C)[C@@H]1NC(=O)[C@H](C)NC(=O)[C@H](CC(N)=O)NC(=O)[C@H](CCCNC(=N)N)NC(=O)[C@H](Cc2ccc(O)cc2)NC(=O)[C@H](C(C)C)NC(=O)[C@@H]2CSSC[C@H](NC(=O)[C@H](C(C)C)NC(=O)[C@H](CCCNC(=N)N)NC1=O)C(=O)N[C@@H](Cc1cnc[nH]1)C(=O)N[C@@H](CCCNC(=N)N)C(=O)N[C@@H](CCCNC(=N)N)C(=O)N[C@H](C(=O)N[C@@H](CC(N)=O)C(=O)O)CSSC[C@H](NC(=O)[C@H](Cc1ccccc1)NC(=O)[C@H](C)NC(=O)[C@H](CCCNC(=N)N)NC(=O)[C@H](CCCNC(=N)N)NC(=O)[C@H](CCCNC(=N)N)NC(=O)[C@H](CCC(N)=O)NC(=O)[C@H](CCCNC(=N)N)NC(=O)[C@H](CCCNC(=N)N)NC(=O)[C@H](CCCCN)NC(=O)[C@H](CCCCN)NC(=O)[C@H](CCCNC(=N)N)NC(=O)CNC(=O)[C@@H](N)Cc1ccc(O)cc1)C(=O)N[C@@H](Cc1c[nH]c3ccccc13)C(=O)N[C@@H](CC(N)=O)C(=O)N[C@@H](C(C)C)C(=O)N2 |  |  |  |  |  |  |  | 3.89 (≈ 16 µg/mL) | 3.26 | 48.28 - 98.85% | 1.19 | 1.57 | 1.94 (≈ 7.97 µg/mL) | 1.5 | 
CC(C)[C@@H]1NC(=O)[C@H](C)NC(=O)[C@H](CC(N)=O)NC(=O)[C@H](CCCNC(=N)N)NC(=O)[C@H](Cc2ccc(O)cc2)NC(=O)[C@H](C(C)C)NC(=O)[C@@H]2CSSC[C@H](NC(=O)[C@H](C(C)C)NC(=O)[C@H](CCCNC(=N)N)NC1=O)C(=O)N[C@@H](Cc1cnc[nH]1)C(=O)N[C@@H](CCCNC(=N)N)C(=O)N[C@@H](CCCNC(=N)N)C(=O)N[C@H](C(=O)N[C@@H](CC(N)=O)C(=O)O)CSSC[C@H](NC(=O)[C@H](Cc1ccccc1)NC(=O)[C@H](C)NC(=O)[C@H](CCCNC(=N)N)NC(=O)[C@H](Cc1c[nH]c3ccccc13)NC(=O)[C@H](CCC(N)=O)NC(=O)[C@H](Cc1c[nH]c3ccccc13)NC(=O)[C@H](CCCNC(=N)N)NC(=O)[C@@H](N)CCCNC(=N)N)C(=O)N[C@@H](Cc1c[nH]c3ccccc13)C(=O)N[C@@H](CC(N)=O)C(=O)N[C@@H](C(C)C)C(=O)N2 |  |  |  |  |  |  |  | 9 (≈ 31.8 µg/mL) | 1.63 | 34.22 - 91.35% |  |  | 2.25 (≈ 7.95 µg/mL) | 1.9 | 2.1
